# According to patent US20040034216A1, “3-Nitrogen-6,7-dioxygen steroids and uses related thereto” (priority 2003, published 2004):
# Where two headings read alike, the source gives them in different places.
# Key:
# [1] = test system: Rat Mast Cell Line (RBL-2H3); test: Antigen-induced release of hexosaminidase from a rat mast cell line (RBL-2H3); format: cell-based; settings: tested at 0.3, 3, 10 and 30 μM, read-out: Hex IC50
# Description: The anti-allergic effects of a compound of the present invention was evaluated by measuring its effect on antigen-induced secretion of hexosaminidase from a passively sensitized rat mast cell line. The ability of a test compound to inhibit the release of mast cell granule contents, e.g., histamine and hexosaminidase, is indicative of the anti-allergy and/or anti-asthma activity of the compound. Hexosaminidase is released from the mast cell granule along with histamine and other mediators during antigen challenge. The test is performed as follows.
# RBL-2H3 cells are grown in culture and passively sensitized for 1 hour at 37° C. to dinitrophenol (DNP) using anti-human-DNP (IgE). Cells are incubated with test compound for 30 minutes at 37° C. and stimulated with 0.5 μg/ml DNP-HSA (antigen) for 30 minutes. Aliquots of the supernatant are removed and used to measure the amount of hexosaminidase released during challenge with the antigen. The amount of hexosaminidase present in the supernatant is determined colorimetrically by monitoring the enzymatic metabolism of p-nitrophenyl-N-acetyl-β-D-glucosaminide (p-NAG) over a period of 60 minutes at 405 nm. The effect of each test compound is determined as a percentage of the antigen-induced response (minus background release) obtained in the presence of DMSO alone. These values are used to determine the degrees of inhibition of antigen-induced hexosaminidase release from the cells.
# Jurkat clone E6.1 cells = test: Antigen-induced calcium flux in anti-CD3 stimulated Jurkat cells (Fura 2AM); format: cell-based; settings: anti-CD3 mAb stimulated Jurkat clone E6.1 cells; for inhibition at 20 µM: Homo sapiens, Jurkat, read-out: Calcium (% inhibition at 20 μM), 20 μM
# From the text: Elevation of cytoplasmic calcium concentration is a common and crucial event which follows the activation of many types of cell surface receptors. Increases in intracellular calcium that occur following agonist activation of inositol lipid hydrolysis are the results of calcium release from the endoplasmic reticulum and the influx of calcium through the plasma membrane. Increases in cytosolic calcium concentration are involved in many important cellular responses in the inflammatory process including adhesion, motility, gene expression, proliferation, and degranulation. Changes in intracellular calcium concentrations can affect both short and long term cellular responses. An assay method to evaluate a test compound's impact on calcium flux is provided as follows.
# The resulting supernatants are discarded and each pellet is washed in 10 mL HBSS. Cell suspensions are accumulated and centrifuged for 5 minutes at 900 RPM to form a cell pellet. The resulting supernatant is discarded and the pellet is resuspended in HBSS at 1×10^7cells/mL. The cell suspension is transferred to a 20 mm petri dish and incubated at 37° C., 5% CO2 for 20 minutes.
# One volume of Fura 2AM is mixed to one volume of detergent Pluronic F127. Cells are labeled with 4 μL of probe solution to each mL of cell suspension. The petri dish is wrapped in aluminum foil to protect from light and placed on a plate shaker for 30 minutes at room temperature.
# The following steps are done in the laminar flow hood with the fluorescent lights turned off. The petri dish is removed from the shaker and the labeled cell suspension is transferred to a 15 mL conical tube and washed twice with HBSS as above. The cell pellet is resuspended in 12 mL HBSS and left wrapped in foil for 30 minutes at room temperature. The labeled cell suspension is aliquoted (100 μL/well) into a Dynex 96 well white opaque tissue culture plate. […] Selected compounds were tested for dose related activity. Test samples and activator (anti-CD3 mAb at final concentration of 4 μg/mL, PharMingen) are added manually (50 μL), such that the minimum time to acquire the first data point after stimulation is approximately 30 seconds. The calcium influx response to anti-CD3 mAb is measured as an “end point” assay. The entire plate is read in 100 seconds using a kinetic of 1 second per well.
# The plate is read before the addition of anti-CD3 to monitor non-specific effect of samples/drugs. Fluorescence emission is measured at 510 nm with excitation alternating between 340 and 380 every second using an excitation/emission filter pair. Data from these dual wavelengths are represented as a ratio of 2 excitations wavelengths. This ratio is independent of intracellular dye and cell concentrations, enabling real comparison between experiments.
# [2] = test system: sensitized Brown Norway rats; test: Ovalbumin-induced accumulation of inflammatory cells in lung lavage fluid (allergen-induced lung inflammation); format: in vivo, rat; settings: 1 mg/kg/day for 4 days, p.o., corn oil; lung lavage fluid
# Description: The ability of a compound to inhibit the allergen-induced accumulation of inflammatory cells such as eosinophils and neutrophils in the lavage fluid obtained from sensitized animals is indicative of that compound's anti-asthma activity. […] The test is conducted as follows.
# Male Brown Norway rats are sensitized to ovalbumin by single intraperitoneal injection of 1 mg ovalbumin adsorbed to 100 mg […] (alum) in 1 ml sterile saline (saline control rats receive only sterile saline) on day 1, and allowed to sensitize until day 21. […] Rats are challenged with 0.5% ovalbumin in saline generated using a Devillbis nebulizer for 60 min on day 21.
# Forty-eight hrs after challenge, animals are sacrificed with an overdose of intraperitoneally-delivered sodium pentobarbitol and the lungs are lavaged with cold 2×7 ml phosphate buffered saline. The recovered lavage fluid is placed on ice. The bronchoalveolar lavage fluid is centrifuged and the supernatant removed. The pellet is resuspended in phosphate buffered saline at 4° C. Cytospins are prepared and stained for differentiation and enumeration of cell types.
# Test compound was administered in 300 μl corn oil (Tables 7 and 8) or water (Table 9), which were used as vehicles. Control animals received 300 μl corn oil or water alone, i.e., no drug. […] A negative value in Table 7, 8, or 9 indicates an exacerbation of the effect over the control animal.
# [3] = Rattus norvegicus, RBL-2H3, inhibition of antigen (DNP-HSA)-induced hexosaminidase release
SMILES,Calcium (% inhibition at 20 μM) (Jurkat clone E6.1 cells) [%],% inhibition of lymphocytes [2] [%],% inhibition of neutrophils [2] [%],also measured
C/C=C1/CCC2C3C(CC[C@]12C)[C@@]1(C)CCC(N2CCCCC2)CC1[C@@H](O)[C@@H]3O (stereo partly shown) [Compound 110],,,,"IC50 [1, 3]: 10.9 µM; inhibition at 20 µM (Jurkat clone E6.1 cells): 39.7%"
C/C=C1/CCC2C3C(CC[C@]12C)[C@@]1(C)CCC(NC)CC1[C@@H](O)[C@@H]3O (stereo partly shown) [Compound 113],,,,"IC50 [1, 3]: 9.8 µM; inhibition at 20 µM (Jurkat clone E6.1 cells): 45%"
CC=C1CCC2C3C(O)C(O)C4CC(NCCCCC)CCC4(C)C3CCC12C.Cl (stereo not shown) [Compound 115],40.0,,,
CC(=O)O.CC=C1CCC2C3C(O)C(O)C4CC(NC5CCCC5)CCC4(C)C3CCC12C (stereo not shown) [Compound 116],60.9,,,
CC=C1CCC2C3C(O)C(O)C4CC(NCCNCCC)CCC4(C)C3CCC12C (stereo not shown) [Compound 119],,,,IC50 ([1]; inhibition of antigen (DNP-HSA)-induced hexosaminidase release): 6.1 µM
CC=C1CCC2C3C(O)C(O)C4CC(NCCN(C)C)CCC4(C)C3CCC12C.Cl.Cl (stereo not shown) [Compound 120],44.0,,,
CC=C1CCC2C3C(O)C(O)C4CC(NCCNCCO)CCC4(C)C3CCC12C.Cl.Cl (stereo not shown) [Compound 124],21.0,−26,−76,% inhibition of eosinophils [2]: −55%
CC=C1CCC2C3C(O)C(O)C4CC(Nc5cccc(C)c5)CCC4(C)C3CCC12C.Cl (stereo not shown) [Compound 125],5.7,,,
CC=C1CCC2C3C(O)C(O)C4CC(Nc5ccc(O)cc5)CCC4(C)C3CCC12C.Cl (stereo not shown) [Compound 126],45.0,,,
C=C1CCC2C3C(CC[C@]12C)[C@@]1(C)CC[C@@H](NC(C)=O)CC1[C@@H](O)[C@@H]3O (stereo partly shown) [Compound 131],,,,"IC50 [1, 3]: 14.1 µM; inhibition at 20 µM (Jurkat clone E6.1 cells): 9.9%"
C=C1CCC2C3C(CC[C@]12C)[C@@]1(C)CC[C@@H](NS(=O)(=O)C(C)C)CC1[C@@H](O)[C@@H]3O (stereo partly shown) [Compound 133],,28,40,% inhibition of eosinophils [2]: −43%
C=C1CCC2C3C(CC[C@]12C)[C@@]1(C)CC[C@@H](NC(=O)Nc2ccccc2)CC1[C@@H](O)[C@@H]3O (stereo partly shown) [Compound 137],,,,"IC50 [1, 3]: 14.8 µM; inhibition at 20 µM (Jurkat clone E6.1 cells): 13%"
C=C1CCC2C3C(CC[C@]12C)[C@@]1(C)CC[C@@H](NC(=O)NCCC)CC1[C@@H](O)[C@@H]3O (stereo partly shown) [Compound 138],9.0,33,35,% inhibition of eosinophils [2]: −52%
COc1ccc(CNC2CCC3(C)C(C2)C(O)C(O)C2C4=C(CCC23)C(C)(C)CC4)cc1OC.Cl (stereo not shown) [Compound 142],,−42,−1,
CCC1(C)CCC2=C1CCC1C2C(O)C(O)C2CC(NCc3ccccc3)CCC21C.Cl (stereo not shown) [Compound 146],,−27,24,% inhibition of eosinophils [2]: 8%
CCC1(C)CCC2=C1CCC1C2C(O)C(O)C2CC(NCc3ccccc3)CCC21C.Cl (stereo not shown) [Compound 147],,36,58,% inhibition of eosinophils [2]: 40%
COC1C(OC)C2CC(N)CCC2(C)C2CCC3=C(CCC3(C)C)C12.Cl (stereo not shown) [Compound 148],6.6,,,
